From patent US5292521A, “Solid oral preparation containing a pyrrolidine derivative with a catechol group” (priority 1990, dated 1994)
Like-named read-outs stand apart in the source and are kept apart here.

Columns and labels:
[1] = Oral administration to fasted beagles with L-cysteine or L-aspartic acid, plasma drug disposition parameters (Experimental Example 4); format: in vivo; settings: for AUC(0-t) at 8 h / Cmax / Tmax: dog, plasma, po, 3 mg/kg; for AUC(0-t) at 8 h: read-out: AUC (0-8 hr) mean ± SE; for Cmax: read-out: Cmax mean ± SE; for Tmax: read-out: Tmax mean ± SE
Experimental: A similar mixture to that described above was prepared except that L-cysteine was replaced by 350 mg of L-aspartic acid.
(§1) (a) Administration and collection of blood sample
An internal standard substance (IS 20 ng in 200 μl) was added to 1 ml of blood plasma. After dilution with 2 ml of water, the aqueous solution was passed through a BONDELUTE (trade name) C18 column previously washed with 3 ml of methanol containing 0.1% of acetic acid and 9 ml of water. After further washing with 9 ml of water and 2 ml of acetonitrile, the sample was eluted with 1.2 ml of methanol containing 0.1% of perchloric acid. The solvent was distilled off and the residue was dissolved in 200 μl of a 0.1% acetic acid aqueous solution/methanol mixture (2/1, V/V). 50 to 100 μl thereof was injected into an instrument for HPLC for determination. Separately, blood plasma containing known amounts of compound (IX) and IS was treated to prepare an addition/recovery calibration curve. The concentration was determined from the ratio of the peak height of compound (IX) to that of IS. The detection limit in this method was 0.05 ng/ml of plasma.
(§2) (c) HPLC determination conditions
(§3) A HPLC pump used was CCPD mfd. by Toyo Soda Mfg. Co., Ltd. 1.35 ml/min of an aqueous solution containing 0.1% of perchloric acid and 0.01% of a disodium ethylenediaminetetraacetate/methanol mixture 80:9 (V/V) was introduced therein. The sample was injected into the instrument with a WISP 710B auto-sampler mfd. by Waters at intervals of about 50 minutes. A reversed phase ODS-120 T column (4.6×250 mm) with a prefilter was used as the analysis column. The detector used was an ECD-100 electrochemical detector mfd. by Acome. The voltage was +650 mV (against a SEC electrode).

[2] = Oral administration to fasted beagles with ascorbic, citric or tartaric acid, plasma drug disposition parameters (Experimental Example 3); format: in vivo; settings: for AUC(0-t) at 6 h / Cmax / Tmax: dog, plasma, po, 3 mg/kg, n=4; for AUC(0-t) at 6 h: read-out: AUC (0-6 hr) mean ± SE; for Cmax: read-out: Cmax mean ± SE; for Tmax: read-out: Tmax mean ± SE (converted)
Description: Compound (IX) and ascorbic acid, citric acid or tartaric acid were weighed, pulverized thoroughly and mixed together in an agate mortar. The mixture was divided into portions and filled in gelatin capsules (No. 1 or No. 00) and the gap in each capsule was further filled with lactose to obtain a sample. Separately, compound (IX) was formulated into a powder of five-fold dilution with lactose and filled in capsules in a similar manner to that described above to obtain a control sample.
The dose of compound (IX) was adjusted to 3 mg/kg in all the cases, while that of ascorbic acid was adjusted to three levels, i.e. 3 mg/kg, 9 mg/kg and 15 mg/kg and that of each of citric acid and tartaric acid was adjusted to one level of 15 mg/kg.
as §1
The capsule of compound (IX) was given to each of 4 beagles (average body weight 9.53 kg) together with 30 ml of water by oral administration after fasting overnight (14 hours). The experiment was conducted by the crossover administration method while the beagles were kept fasting.
An internal standard substance (IS 50 ng in 50 μl) was added to 1 ml of blood plasma. After extraction with 5 ml of ethyl acetate, the solvent was distilled off. 100 μl of a citrate buffer solution (pH 3.5) was added thereto to form a solution again, which was washed with 1 ml of diethyl ether. The lower layer was separated and 50 μl of methanol was added thereto. 50 to 100 μl thereof was injected into an instrument for high-performance liquid chromatography (HPLC) for determination. Separately, blood plasma containing known amounts of compound (IX) and IS was treated to prepare an addition/recovery calibration curve. The concentration was determined from the ratio of the peak height of compound (IX) to that of IS. The detection limit in this method was 0.2 ng/ml of plasma.
as §2
as §3, with “1.5” for “1.35”, “of” for “of an aqueous solution containing 0.1% of perchloric acid and 0.01% of”, “citrate buffer (pH 3.5)/methanol” for “disodium ethylenediaminetetraacetate/methanol”, “80:1” for “80:9”, “Nucleosil (trade name) 7C6H5” for “ODS-120 T”
The citrate buffer solution (pH 3.5) was prepared by dissolving 26.25 g of citric acid, 16.58 g of anhydrous sodium acetate, 12.25 g of sodium hydroxide, 0.8375 g of disodium ethylenediaminetetraacetate, 93.8 ml of glacial acetic acid and 35.9 ml of 60% perchloric acid in 2500 ml of distilled water.
The AUC value in the period of 0 to 6 hours was determined from each of these curves. The results are given in FIG. 6, which is a bar graph for the comparison of the AUC values of the respective samples.

[3] = 3 mg/kg oral + L-aspartic acid 15 mg/kg, n=2
[4] = 3 mg/kg oral + L-cysteine 15 mg/kg, n=2
[5] = 3 mg/kg oral, none (control), n=4
[6] = 3 mg/kg oral + ascorbic acid 3 mg/kg (1:1)
[7] = 3 mg/kg oral + ascorbic acid 9 mg/kg (1:3)
[8] = 3 mg/kg oral + ascorbic acid 15 mg/kg (1:5)
[9] = 3 mg/kg oral + citric acid 15 mg/kg (1:5)
[10] = 3 mg/kg oral + tartaric acid 15 mg/kg (1:5)
[11] = 3 mg/kg oral, no organic acid (control)

Addition effect (AUC ratio) ([1]; 3 mg/kg oral + L-aspartic acid 15 mg/kg): 2.46
Addition effect (AUC ratio) ([1]; 3 mg/kg oral + L-cysteine 15 mg/kg): 1.59
Addition effect (AUC ratio) ([1]; 3 mg/kg oral, none (control)): 1.00
effect relative to that obtained by adding tartaric acid ([1]; L-cysteine and L-aspartic acid): ~2.7 times
AUC(0-t) at 8 h [1, 3]: 37.5 ± 0.2 ng·h/mL
Cmax [1, 3]: 48.2 ± 2.5 ng/mL
Tmax [1, 3]: 45 ± 15 min
AUC(0-t) at 8 h [1, 4]: 24.4 ± 1 ng·h/mL
Cmax [1, 4]: 15.3 ± 2.7 ng/mL
Tmax [1, 4]: 70.2 ± 50.4 min
Cmax [1, 5]: 21 ± 5.3 ng/mL
Tmax [1, 5]: 43.8 ± 16.8 min
increase of AUC value ([1]; with L-aspartic acid): 2.46 -fold
increase of AUC value ([1]; with L-cysteine): 1.59 -fold
Addition effect ratio ([2]; 3 mg/kg oral + ascorbic acid 3 mg/kg (1:1), AUC ratio to no additive): 1.9
Addition effect ratio ([2]; 3 mg/kg oral + ascorbic acid 9 mg/kg (1:3), AUC ratio to no additive): 4.8
increase of AUC value vs no added acid ([2]; 3 mg/kg oral + ascorbic acid 15 mg/kg): 7 -fold
Addition effect ratio ([2]; 3 mg/kg oral + ascorbic acid 15 mg/kg (1:5), AUC ratio to no additive): 7.0
Addition effect ratio ([2]; 3 mg/kg oral + citric acid 15 mg/kg (1:5), AUC ratio to no additive): 3.3
Addition effect ratio ([2]; 3 mg/kg oral + tartaric acid 15 mg/kg (1:5), AUC ratio to no additive): 2.7
Addition effect ratio ([2]; 3 mg/kg oral, no organic acid, base): 1.0
AUC(0-t) at 6 h [2, 6]: 28.4 ± 6.5 ng·h/mL
Cmax [2, 6]: 33.8 ± 13.2 ng/mL
Tmax [2, 6]: 34 min
AUC(0-t) at 6 h [2, 7]: 72.6 ± 18.5 ng·h/mL
Cmax [2, 7]: 187 ± 91.7 ng/mL
Tmax [2, 7]: 43 min
AUC(0-t) at 6 h [2, 8]: 107 ± 14.6 ng·h/mL
Cmax [2, 8]: 139 ± 20.9 ng/mL
Tmax [2, 8]: 55 min
AUC(0-t) at 6 h [2, 9]: 50.7 ± 16.5 ng·h/mL
Cmax [2, 9]: 87.4 ± 30.2 ng/mL
Tmax [2, 9]: 29 min
AUC(0-t) at 6 h [2, 10]: 40.4 ± 7.8 ng·h/mL
Cmax [2, 10]: 61.5 ± 26.3 ng/mL
Tmax [2, 10]: 45 min
AUC(0-t) at 6 h [2, 11]: 15.2 ± 2.8 ng·h/mL
Cmax [2, 11]: 21 ± 5.3 ng/mL
Tmax [2, 11]: 44 min
increase of AUC value vs no added acid ([2]; with citric acid): 3.3 -fold
increase of AUC value vs no added acid ([2]; with tartaric acid): 2.7 -fold
Structure (SMILES): Oc1ccc([C@@H]2CNC[C@H]2c2cccc(O)c2Cl)cc1O (relative stereo) [compound (IX)]
